From paper PMC10100792, “Host-Erythrocytic Sphingosine-1-Phosphate Regulates Plasmodium Histone Deacetylase Activity and Exhibits Epigenetic Control over Cell Death and Differentiation” (Microbiology Spectrum, 2023)

How the values were obtained:
[1] = molecular target: T1, hSphK-1 (sphingosine kinase 1) (Homo sapiens, UniProt Q9NYA1); experiment: fluorometric conversion of NBD-Sph ([…]) to NBD-S1P by purified rSphK-1; assay type: biochemical
T1 construct: gene SPHK1; full-length, 6×His-SphK-1 (1155 bp CDS)
T1 sequence (Q9NYA1 whole entry): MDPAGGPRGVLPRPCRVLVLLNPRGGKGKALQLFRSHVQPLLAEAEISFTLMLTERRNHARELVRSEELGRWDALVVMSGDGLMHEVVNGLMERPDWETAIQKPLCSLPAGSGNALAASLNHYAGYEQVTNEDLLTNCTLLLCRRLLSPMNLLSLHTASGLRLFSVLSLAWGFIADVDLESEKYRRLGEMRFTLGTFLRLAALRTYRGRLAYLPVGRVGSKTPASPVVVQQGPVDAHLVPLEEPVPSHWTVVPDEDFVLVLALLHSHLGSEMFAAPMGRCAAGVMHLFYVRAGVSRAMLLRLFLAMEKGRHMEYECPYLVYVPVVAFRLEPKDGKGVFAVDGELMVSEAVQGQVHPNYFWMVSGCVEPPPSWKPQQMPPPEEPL

hHDAC-1 = molecular target: T2, hHDAC-1 (Homo sapiens, UniProt Q13547); experiment: microscale thermophoresis; assay type: binding
T2 construct: gene HDAC1
T2 sequence (Q13547 whole entry): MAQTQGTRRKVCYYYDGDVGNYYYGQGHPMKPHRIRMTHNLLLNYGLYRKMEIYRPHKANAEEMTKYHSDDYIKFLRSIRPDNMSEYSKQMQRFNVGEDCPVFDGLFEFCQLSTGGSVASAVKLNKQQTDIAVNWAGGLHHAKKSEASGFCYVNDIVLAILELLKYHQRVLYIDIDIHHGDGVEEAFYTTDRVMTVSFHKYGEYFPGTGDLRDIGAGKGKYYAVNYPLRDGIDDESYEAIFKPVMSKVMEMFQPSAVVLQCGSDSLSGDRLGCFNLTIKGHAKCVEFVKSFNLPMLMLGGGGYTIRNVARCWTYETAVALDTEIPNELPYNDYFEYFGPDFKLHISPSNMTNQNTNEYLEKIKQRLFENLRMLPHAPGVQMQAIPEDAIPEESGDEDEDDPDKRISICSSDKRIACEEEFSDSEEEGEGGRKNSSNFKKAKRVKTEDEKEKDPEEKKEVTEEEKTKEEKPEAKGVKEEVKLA

[2] = molecular target: T3, PfHDAC-1 (histone deacetylase-1) (Plasmodium falciparum, UniProt Q9XYC7); experiment: microscale thermophoresis; also lipid overlay, S1P-bead pull-down, and […] inhibition of the recombinant enzyme at […]; assay type: binding; parameters: gene HDAC1; full-length, 6×His-PfHDAC-1 (1380 bp CDS from Pf3D7)
T3 sequence (Q9XYC7 1-449): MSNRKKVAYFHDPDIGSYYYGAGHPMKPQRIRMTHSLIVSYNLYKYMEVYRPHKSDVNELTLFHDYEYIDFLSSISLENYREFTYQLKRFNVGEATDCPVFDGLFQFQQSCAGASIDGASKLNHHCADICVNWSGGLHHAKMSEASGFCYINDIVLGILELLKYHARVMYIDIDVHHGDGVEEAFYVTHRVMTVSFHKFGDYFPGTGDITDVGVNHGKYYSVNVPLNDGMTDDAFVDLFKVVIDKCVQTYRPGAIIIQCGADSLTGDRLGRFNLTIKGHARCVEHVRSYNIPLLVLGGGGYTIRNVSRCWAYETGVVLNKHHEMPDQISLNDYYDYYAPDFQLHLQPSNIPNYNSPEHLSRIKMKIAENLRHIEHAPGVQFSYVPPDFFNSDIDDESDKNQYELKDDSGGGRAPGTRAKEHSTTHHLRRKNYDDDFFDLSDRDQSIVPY

[3] = molecular target: T3, PfHDAC-1 (histone deacetylase-1); experiment: biochemical; parameters: gene HDAC1

For `N[C@@H](CO)[C@H](O)/C=C/CCCCCCCCCCCCCNc1ccc([N+](=O)[O-])c2nonc12` [NBD-Sph, NBD-Sphingosine], the “fluorometric conversion of NBD-Sph (10 μM) to NBD-S1P by purified rSphK-1” value [1] was “fluorimetry-based enzymatic assay using NBD-sphingosine”.

With `CCCCCCCCCCCCC/C=C/[C@@H](O)[C@@H](N)COP(=O)(O)O` [S1P, Sphingosine-1-Phosphate] the Kd (hHDAC-1) was 1.61 ± 0.8 µM and the Kd [2] was 0.177 ± 0.024 µM.

With `O=C(CCCCCCC(=O)Nc1ccccc1)NO` [SAHA, Suberoylanilide Hydroxamic Acid] the Kd [3] was 2.09 ± 0.45 µM.
